Entries after “also recorded” stand apart in the source; their conditions may differ. Marks after values point to notes of the source that are not given here.
Assays:
[1] = system: Tumor cell lines (Lewis lung carcinoma or MDA-MB-231); assay: Wash-out in vitro anti-proliferation studies (cell counts) with ENMD-1198; assay type: cell-based
Method: Tumor cell lines (Lewis lung carcinoma or MDA-MB-231) were treated in vitro for varying times with varying concentrations of ENMD-1198. Over the course of a three-day study, on each study day the cells were exposed to ENMD-1198 for varying times (1, 2, 4, 6, or 24 hours) at the indicated concentrations. The medium was then removed and replaced with medium without ENMD-1198 for the remainder of each 24-hour period. For the 24-hour exposure wells, the medium was changed every day to provide 72 hours continuous exposure. Anti-proliferative activity was determined by cell counts after the third day of treatment.

[2] = system: collagen-induced arthritis; assay: Rat collagen-induced arthritis model, radiographic scores; assay type: in vivo
Description: Using relevant PK data for any given formulation in a human or animal, it is possible for one skilled in the art to devise a dosing strategy-a combination of dose level and dose frequency-which will result in substantially continuous maintenance of the plasma level of the agent within the desired concentration range and so maximize the pharmacological activity, in this case anti-arthritic or anti-inflammatory activity.

[3] = Plasma 2ME2 pharmacokinetics in non-tumor bearing C57BL/6 mice; assay type: in vivo; conditions: for Cmin / Tmax / T½ / Cmax / AUC0-24: i.p.
Method: On day 7, plasma samples were collected at selected time points, and plasma unconjugated 2ME2 levels were determined using LC-MS/MS methodology.
The data for 0.5 mg q.i.d. over the first six hours was used to model steady state levels over a 24 hr. time period as shown in FIG. 2. Pharmacokinetic parameters were determined by noncompartmental analysis using WinNonLin (Pharsight, Mountain View, Calif.).
(§1) In further support of this paradigm, a significant inhibition of pulmonary metastases was obtained in tumor-bearing mice given 2ME2 by continuous infusion using Alzet pumps. Three days after injection of LLC cells, therapy was initiated i.p. with either vehicle control or with 2ME2 delivered through 7-day osmotic pumps (see FIG. 3A). The daily target levels of 2ME2 were calculated assuming an average pump rate of […]. To achieve a target level of 200 mg/kg/day, the concentration of 2ME2 in the osmotic pumps was prepared at 150 mg/mL. Asterisks indicate groups statistically different from vehicle control (α=0.05) as shown in A. To determine the PK profile of 2ME2 using this delivery scheme, non-tumor bearing male C57BL/6 mice (6 weeks of age) were treated i.p. for up to 7 days with 2ME2 at 1.8 mg/day (˜100 mg/kg/day) using 7-day osmotic pumps. On days 2, 4, and 7, plasma samples were collected and plasma 2ME2 levels were determined as described above (see FIG. 3B).

[4] = as above; assay type: in vivo; conditions: ad libitum drinking water, range over a 24 hr period
[5] = system: Tumor cell lines (Lewis lung carcinoma or MDA-MB-231); assay: Wash-out in vitro anti-proliferation studies (BrdU) with 2ME2; assay type: cell-based
Method: To mimic the effect of cyclic levels of 2ME2 seen after daily dosing, and to compare this to the effects of continuous exposure to 2ME2, we carried out a series of wash-out in vitro anti-proliferation studies. Tumor cell lines (Lewis lung carcinoma or MDA-MB-231) were treated in vitro for varying times with varying concentrations of 2ME2. Over the course of a three-day study, on each study day the cells were exposed to 2ME2 for varying times (1, 2, 4, 6, or 24 hours) at the indicated concentrations. The medium was then removed and replaced with medium without 2ME2 for the remainder of each 24-hour period. Anti-proliferative activity was determined using a BrdU proliferation assay according to the manufacturer's instructions after the third day of treatment (see FIGS. 4A and 4B).

H2122 human NSCLC cells = assay: Orthotopic H2122 NSCLC rat tumor model, survival; assay type: in vivo, rats
Method: Female athymic nude rats were injected i.t. with H2122 human NSCLC cells (1×10^6 in 0.2 mL). Seven days later, daily therapy was initiated p.o. with either vehicle control or 2ME2 at 10 or 60 or 300 mg/kg/d (n=15 rats/group). Animals were monitored closely for signs of morbidity and median survival times (MST) were determined. The study was terminated 50 days post tumor cell injection. In a separate cohort of non-tumor-bearing rats, plasma 2ME2 concentrations were determined at selected time points following a single oral gavage at 60 and 300 mg/kg. The PK data in Table 3 represents the range of 2ME2 concentrations in a 24 hour period. […] Using relevant PK data for any given formulation in a human or animal, it is possible for one skilled in the art to devise a dosing strategy—a combination of dose level and dose frequency—which will result in substantially continuous maintenance of the plasma level of the agent within the desired concentration range and so maximize the pharmacological activity, in this case anti-tumor activity.

LLC cell line = assay: Wash-out in vitro proliferation study mimicking i.v. dosing; assay type: cell-based; conditions: 3microM 2ME2 for 2 hours, then medium alone
Method: FIG. 1, Panel C: We designed a “wash-out” in vitro proliferation study to mimic the exposure profile following i.v. dosing. The LLC cell line was plated in 96-well plates. After 24 hours, medium containing 3microM 2ME2 was added. Cells were exposed to 3microM 2ME2 for 2 hours. The medium was then removed and replaced with medium alone (medium: DMEM/F12 (1:1)+10% FBS+2mM L-Glutamine).

Lewis lung carcinoma = Lewis lung carcinoma experimental pulmonary metastasis model; assay type: in vivo, mice; conditions: for antitumor activity, T/C: 100 mg/kg/day
Description: A pharmacodynamic paradigm relating 2ME2 pharmacokinetics to activity in vivo was developed. Dose-response relationships were established for 2ME2 following administration by (a) i.v. bolus administration, (b) oral gavage, (c) i.p. bolus injection, (d) i.p. dose fractionation, (e) continuous i.p. infusion, or (f) drinking water ad libitum in animal models, including an experimental pulmonary metastatic Lewis lung carcinoma model, primary tumor cell xenograft models, and a model of rheumatoid arthritis. Plasma 2ME2 concentration was temporally assessed by GC-MS or LC-MS/MS methodology, and pharmacokinetic parameters were defined at effective doses.
These studies assess the effect of route of administration on the anti-tumor activity of 2ME2 in an orthotopic model of murine lung cancer. Three days following the intravenous injection of Lewis lung carcinoma (“LLC”), groups of ten mice were treated with 2ME2 (200 mg/kg) once every 24 hours (q.d.) by either oral gavage (p.o.) or intraperitoneal (i.p.) injection.
FIG. 1, Panel B: 2.5×10^5 Lewis lung carcinoma cells in a volume of 0.2 ml were i.v. injected into the lateral tail vein of C57BL/6 male mice, 5-6 weeks of age (Jackson Labs). Treatment was initiated three days later by daily i.v. injection with 2ME2. Following the final day of therapy, mice were sacrificed, lungs removed, washed in phosphate buffered saline and weighed. Results are expressed as lung weight gain in treated versus control animals.
Dose-dependent inhibition of pulmonary metastases was observed following daily bolus administration of 2ME2. Fractionating a bolus q.d. injection (once every 24 hours, 2 mg/injection, 100 mg/kg/day) into four smaller, equal doses (q6hr, 0.5 mg/injection, 100 mg/kg/day) improved the antitumor activity of 2ME2 (T/C=0.30 and 0.05, respectively, p<0.05).
as §1
In further support of this paradigm, a significant inhibition of pulmonary metastases was obtained in tumor-bearing mice given 2ME2 ad libitum access through their drinking water.

[6] = system: vascular endothelial cell proliferation; conditions: endothelial versus tumor cell proliferation; cited from earlier work
[7] = short-term incubation, even at high concentrations
[8] = 0.5 q.i.d., modelled from first six hours

**Q.** Which “inhibition of proliferation in vitro” value ([1]; continuous exposure (72 hours)) does the source give for `COc1cc2c(cc1C(N)=O)CC[C@@H]1[C@@H]2CC[C@]2(C)C=CC[C@@H]12` [ENMD-1198] here?
**A.** maximal inhibition of proliferation

**Q.** What about the “anti-proliferative activity in vitro” value [1, 7] of the same compound?
**A.** does not result in much anti-proliferative activity

**Q.** What does the source list for `COc1cc2c(cc1O)CC[C@@H]1[C@@H]2CC[C@]2(C)[C@@H](O)CC[C@@H]12` [Formulation 2ME2, 2-methoxyestradiol]?
**A.** radiographic scores on day 28 ([2]; 2ME2 50 mg/kg p.o. b.i.d): 2.11±0.18; radiographic scores on day 28 ([2]; 2ME2 60 mg/kg s.c. continuous infusion (Alzet pumps)): 1.5±0.18; radiographic scores on day 28 ([2]; 2ME2 100 mg/kg p.o. q.d.): 2.88±0.21; Cmin ([3]; 0.5 q.d., day 7): 1.46 ng/mL; Tmax ([3]; 0.5 q.d., day 7): 0.5 h; T½ ([3]; 0.5 q.d., day 7): 1.1 h; Cmax ([3]; 0.5 q.d., day 7, plasma unconjugated 2ME2): 325 ng/mL; AUC0-24 ([3]; 0.5 q.d., day 7, = AUC0-6*4): 826.5^a ng/mL*hr; AUC0-24 [3, 8]: 836.1 ng·h/mL; Cmin [3, 8]: 1.50 ng/mL; Tmax [3, 8]: 18.5 h; T½ [3, 8]: 1.1 h; Cmax ([3]; 0.5 q.i.d., steady state over 24 hr modelled from first six hours): 326.09 ng/mL; AUC0-24 ([3]; 2.0 q.d., day 7): 13570.9 ng·h/mL; Cmax ([3]; 2.0 q.d., day 7): 14070 ng/mL; Cmin ([3]; 2.0 q.d., day 7): 0.86 ng/mL; Tmax ([3]; 2.0 q.d., day 7): 0.5 h; T½ ([3]; 2.0 q.d., day 7): 3.2 h; plasma exposure levels ([3]; continuous i.p. infusion, Alzet osmotic pumps, ~100 mg/kg/day): 9 to 25 ng/mL; plasma 2ME2 concentrations [4]: 3 to 15 ng/mL; inhibition of proliferation in vitro ([5]; continuous exposure): maximal inhibition of proliferation; anti-proliferative activity in vitro [5, 7]: does not result in much anti-proliferative activity; % Survival on Day 50 (H2122 human NSCLC cells; 2ME2 10 mg/kg/d p.o.): 13%; Median Survival Time (H2122 human NSCLC cells; 2ME2 10 mg/kg/d p.o.): 18.5 days; % Survival on Day 50 (H2122 human NSCLC cells; 2ME2 60 mg/mk/d p.o.): 20%; Median Survival Time (H2122 human NSCLC cells; 2ME2 60 mg/mk/d p.o.): 26 days; % Survival on Day 50 (H2122 human NSCLC cells; 2ME2 300 mg/kg/d p.o.): 47%; Median Survival Time (H2122 human NSCLC cells; 2ME2 300 mg/kg/d p.o.): 43 days; increase in median survival time as compared to diluent-treated controls (H2122 human NSCLC cells; oral gavage, plasma 2ME2 3-17 ng/mL): 2.5 fold; anti-proliferative effect of transient exposure (LLC cell line): poor anti-proliferative effect; also recorded: did not result in much anti-proliferative activity; inhibition of pulmonary metastases, T/C (Lewis lung carcinoma; 2ME2 200 mg/kg q.d. i.p. injection): 0.17; inhibition of pulmonary metastases, T/C (Lewis lung carcinoma; 2ME2 200 mg/kg q.d. oral gavage (p.o.)): 0.28; inhibition of pulmonary metastases, T/C (Lewis lung carcinoma; 2ME2 ad libitum through drinking water): 0.16; antitumor activity, T/C (Lewis lung carcinoma; bolus q.d., 2 mg/injection): 0.30; growth inhibition of pulmonary metastases (Lewis lung carcinoma; continuous i.p. infusion, Alzet osmotic pumps, calculated dose ~100 mg/kg/day): 89%; anti-tumor activity in vivo (lung weight gain) (Lewis lung carcinoma; daily i.v. injection, transiently high levels): did not result in significant anti-tumor activity; antitumor activity, T/C (Lewis lung carcinoma; q6hr, 0.5 mg/injection): 0.05

**Q.** With `CO[C@@H]1[C@H](OC(=O)NC(=O)CCl)CC[C@]2(CO2)[C@H]1[C@@]1(C)O[C@@H]1CC=C(C)C` [AGM-1470] as the compound, how does the “lower concentration for half-maximal inhibition of vascular endothelial cell proliferation than of tumor cell proliferation” value [6] read?
**A.** 4 logs
